Laboratory results published in ChEMBL document CHEMBL1201862, “PubChem BioAssay data set” (2004).
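Growth conditions: 96-well plates. Treatment: test compound, 48 hours, 5 concentrations. Analysis: linear interpolation between bracketing concentrations; unreached endpoints set to highest concentration. Here, GI50 denotes the concentration required for 50% inhibition of growth.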 Activity calls are given as the source filed them. No stated cut-off is given here; in the data, active = GI50 up to about 1.1 µM and inactive = higher.

Assays:
Assay in all cases: inhibition of tumour cell growth, NCI panel, 48 h
[1] = test system: NCI-H460
[2] = test system: UACC-257
[3] = test system: HL-60
[4] = test system: SW-620
[5] = test system: SK-MEL-2
[6] = test system: U-251
[7] = test system: UACC-62
[8] = test system: SNB-19
[9] = test system: OVCAR-3
[10] = test system: M14
[11] = test system: RXF 393
[12] = test system: K562
[13] = test system: SK-OV-3
[14] = test system: CAKI-1
[15] = test system: A549
[16] = test system: RPMI-8226
[17] = test system: HCT-116
[18] = test system: OVCAR-5
[19] = test system: A498
[20] = test system: SF-268

Row | Structure (SMILES) | GI50 [1] | GI50 [2] | GI50 [3] | GI50 [4] | GI50 [5] | GI50 [6] | GI50 [7] | GI50 [8] | GI50 [9] | GI50 [10] | GI50 [11] | GI50 [12] | GI50 [13] | GI50 [14] | GI50 [15] | GI50 [16] | GI50 [17] | GI50 [18] | GI50 [19] | GI50 [20]
1 | CC/N=C(\N)CSS(=O)(=O)O | 77.3 µM (inactive) | > 100 µM (inactive) | > 100 µM (inactive) | > 100 µM (inactive) | > 100 µM (inactive) | 71.1 µM (inactive) | > 100 µM (inactive) | > 100 µM (inactive) | > 100 µM (inactive) | > 100 µM (inactive) | > 100 µM (inactive) | > 100 µM (inactive) | > 100 µM (inactive) | > 100 µM (inactive) | > 100 µM (inactive) | > 100 µM (inactive) | > 100 µM (inactive) | > 100 µM (inactive) | > 100 µM (inactive) | > 100 µM (inactive)
2 | N/C(=N\O)N/N=C/c1cc2c(cc1Cl)OCO2 | 34.1 µM (inactive) | 42.3 µM (inactive) | 13.1 µM (inactive) | 41.8 µM (inactive) | 32.1 µM (inactive) | 34.5 µM (inactive) | > 50.4 µM (inactive) | > 25.8 µM (inactive) |  |  | 38.4 µM (inactive) | 26.1 µM (inactive) | 26.4 µM (inactive) | 37.5 µM (inactive) | 36.8 µM (inactive) | 24 µM (inactive) | 51.5 µM (inactive) | 32.5 µM (inactive) | 65.6 µM (inactive) | 25.4 µM (inactive)
3 | CC1(CO)OC(n2cnc3c(N)ncnc32)C(O)C1O (stereo not drawn) | > 100 µM (inactive) |  | > 100 µM (inactive) | > 100 µM (inactive) | > 100 µM (inactive) | > 100 µM (inactive) | > 100 µM (inactive) | > 100 µM (inactive) | > 100 µM (inactive) | > 100 µM (inactive) | > 100 µM (inactive) | > 100 µM (inactive) | > 100 µM (inactive) | > 100 µM (inactive) | > 100 µM (inactive) | > 100 µM (inactive) | > 100 µM (inactive) | > 100 µM (inactive) | > 100 µM (inactive) | > 100 µM (inactive)
4 | COc1ccc(CC2COc3cc(O)cc(O)c3C2=O)cc1O (stereo not drawn) | 6.15 µM (inactive) | > 100 µM (inactive) | 2.4 µM (inactive) | 3.56 µM (inactive) | 3.81 µM (inactive) | 4.89 µM (inactive) | 8.57 µM (inactive) | 4.83 µM (inactive) | 2.3 µM (inactive) | 3.86 µM (inactive) | 24.5 µM (inactive) | 3.13 µM (inactive) | 5.64 µM (inactive) | 4.88 µM (inactive) | 11.9 µM (inactive) | 3.01 µM (inactive) |  | 12.3 µM (inactive) | 99.3 µM (inactive) | 14.7 µM (inactive)
5 | C[N+](C)(C)c1ncnc2c1ncn2C1CC(O)C(CO)O1 (stereo not drawn) | > 100 µM (inactive) | > 100 µM (inactive) | > 100 µM (inactive) | > 100 µM (inactive) | > 100 µM (inactive) | > 100 µM (inactive) | > 100 µM (inactive) | > 100 µM (inactive) | > 100 µM (inactive) | > 100 µM (inactive) | > 100 µM (inactive) | > 100 µM (inactive) | > 100 µM (inactive) | > 100 µM (inactive) | > 100 µM (inactive) | > 100 µM (inactive) | > 100 µM (inactive) | > 100 µM (inactive) | > 100 µM (inactive) | > 100 µM (inactive)
6 | CC(C)CNc1nc2ncnc(N)c2[nH]1 | > 100 µM (inactive) | > 100 µM (inactive) | < 0.01 µM (active) | > 100 µM (inactive) | > 100 µM (inactive) | > 100 µM (inactive) | > 100 µM (inactive) | > 100 µM (inactive) | > 100 µM (inactive) | > 100 µM (inactive) | > 100 µM (inactive) | > 100 µM (inactive) | > 100 µM (inactive) | > 100 µM (inactive) | > 100 µM (inactive) | > 100 µM (inactive) | > 100 µM (inactive) | > 100 µM (inactive) | > 100 µM (inactive) | > 100 µM (inactive)
7 | CC1=C2c3ccccc3N(C(=O)/C=C/C(=O)O)[C@H]2[C@H]2C(=O)OC(=O)[C@H]2C1 | > 10 µM (inactive) |  | > 10 µM (inactive) | > 10 µM (inactive) | > 10 µM (inactive) | > 10 µM (inactive) | > 10 µM (inactive) | > 10 µM (inactive) | > 10 µM (inactive) | > 10 µM (inactive) | > 10 µM (inactive) |  | > 10 µM (inactive) | > 10 µM (inactive) | > 10 µM (inactive) | > 10 µM (inactive) | > 10 µM (inactive) | > 10 µM (inactive) | > 10 µM (inactive) | > 10 µM (inactive)
8 | CN(C)N1C(=O)C(=O)N(c2cccc3ccccc23)C1=O | > 10 µM (inactive) |  | > 10 µM (inactive) | > 10 µM (inactive) | > 10 µM (inactive) | > 10 µM (inactive) | > 10 µM (inactive) | > 10 µM (inactive) | > 10 µM (inactive) | > 10 µM (inactive) | > 10 µM (inactive) | > 10 µM (inactive) | > 10 µM (inactive) | > 10 µM (inactive) | > 10 µM (inactive) | > 10 µM (inactive) | > 10 µM (inactive) | > 10 µM (inactive) | > 10 µM (inactive) | > 10 µM (inactive)
9 | CSC1(C)C(=O)Nc2c(OCc3ccccc3)cc([N+](=O)[O-])cc21 (stereo not drawn) | > 100 µM (inactive) | > 100 µM (inactive) | 40.7 µM (inactive) | 71.6 µM (inactive) | 38.7 µM (inactive) | 19.9 µM (inactive) | 19.6 µM (inactive) | > 100 µM (inactive) | > 100 µM (inactive) | 29.8 µM (inactive) | 51.3 µM (inactive) | 91 µM (inactive) | > 100 µM (inactive) | 75.3 µM (inactive) | 21.5 µM (inactive) | 32.2 µM (inactive) | 85.5 µM (inactive) | 63 µM (inactive) | 34.2 µM (inactive) | 31.6 µM (inactive)
10 | Nn1c(S)nnc1COc1cccc(OCc2nnc(S)n2N)c1 | 29.7 µM (inactive) | > 100 µM (inactive) | 86.3 µM (inactive) | 40 µM (inactive) | > 100 µM (inactive) | > 100 µM (inactive) | 83.2 µM (inactive) | > 100 µM (inactive) | > 100 µM (inactive) | > 100 µM (inactive) | > 100 µM (inactive) | 4.9 µM (inactive) | > 100 µM (inactive) | > 100 µM (inactive) | > 100 µM (inactive) | 53.6 µM (inactive) | > 100 µM (inactive) | > 100 µM (inactive) | > 100 µM (inactive) | > 100 µM (inactive)
11 | N[C@]1(C(=O)O)C[C@@H]2C(Br)=NO[C@@H]2C1 | 55.7 µM (inactive) | > 100 µM (inactive) | > 100 µM (inactive) | > 100 µM (inactive) | > 100 µM (inactive) | > 100 µM (inactive) | > 100 µM (inactive) | > 100 µM (inactive) | > 100 µM (inactive) | > 100 µM (inactive) | > 100 µM (inactive) |  | > 100 µM (inactive) | > 100 µM (inactive) | > 100 µM (inactive) | > 100 µM (inactive) | 56 µM (inactive) | > 100 µM (inactive) | > 100 µM (inactive) | > 100 µM (inactive)
12 | O=C(O)C(=C\c1ccc2c(c1)OCO2)/C(=C/c1ccc2c(c1)OCO2)C(=O)O | > 100 µM (inactive) | > 100 µM (inactive) | > 100 µM (inactive) | > 100 µM (inactive) | > 100 µM (inactive) | > 100 µM (inactive) | > 100 µM (inactive) | > 100 µM (inactive) | > 100 µM (inactive) | > 100 µM (inactive) | > 100 µM (inactive) | > 100 µM (inactive) | > 100 µM (inactive) | > 100 µM (inactive) |  | > 100 µM (inactive) | > 100 µM (inactive) | > 100 µM (inactive) | > 100 µM (inactive) | 
13 | Cn1c(=O)c2nc3sc4c(n3c2n(C)c1=O)C(=O)c1ccccc1C4=O | > 71.1 µM (inactive) | > 88.9 µM (inactive) | 11.2 µM (inactive) | > 66.5 µM (inactive) | > 55.5 µM (inactive) | 39 µM (inactive) | > 100 µM (inactive) | > 44.1 µM (inactive) | 12.1 µM (inactive) | > 100 µM (inactive) | > 26.5 µM (inactive) | 63.2 µM (inactive) | > 47.5 µM (inactive) | > 78.9 µM (inactive) | > 81.7 µM (inactive) | 38.4 µM (inactive) | > 54.8 µM (inactive) | > 100 µM (inactive) | > 100 µM (inactive) | > 78.5 µM (inactive)
14 | O=c1oc(-c2ccc(O)c(O)c2)cc2cccc(O)c12 [THUNBERGINOL A] | 13.4 µM (inactive) | 22.6 µM (inactive) | 17.1 µM (inactive) | 21.1 µM (inactive) | 26.1 µM (inactive) |  |  | 19.1 µM (inactive) | 10.5 µM (inactive) | 19.5 µM (inactive) | 18.9 µM (inactive) | 22.1 µM (inactive) | 29.4 µM (inactive) | 6.71 µM (inactive) | 35.4 µM (inactive) | 10.5 µM (inactive) | 10.3 µM (inactive) | 22 µM (inactive) | 19.9 µM (inactive) | 19.8 µM (inactive)
